Test results reported in patent US12329735B2, “Azelaic acid esters in the treatment of insulin resistance” (NEW FRONTIER LABS, LLC, priority 2016, dated 2025).

Columns and labels:
[1] = system: EpiDerm 3-D human skin tissue; assay: EpiDerm 3-D human skin tissue exposed to croton oil plus azelates, multiplex immunoassays of 47 markers; format: cell-based; conditions: croton oil + azelate, 24 hours; medium and tissue lysates
Procedure: EpiDerm 3-D human skin tissue (MatTek) was exposed to an irritant, croton oil+the azelates for 24 hours. Levels of 47 cytokines and other signaling molecules were measured in cultured media and tissue lysates using multiplex immunoassays. Relative % differences in levels of select markers in medium and tissues after treatment with croton oil plus azelates versus croton oil alone were graphed as heat maps displaying statistically significant/nearly significant differences and distinct patterns of marker modulation. The azelates also exerted chemoprotective activity against croton oil damage on microscopic examination.

[2] = system: PAMP receptors (Toll-Like Receptors) on dendritic cells; assay: PAMP receptor agonist-induced signaling in dendritic cells; format: cell-based; conditions: 0.5% DEA, 24 hours
Procedure: The azelates modulated broad-range signaling of pathogen-associated molecular patterns (PAMP) receptors: Toll-Like Receptors (TLRs) are a class of PAMP receptors. Various PAMP receptor agonists (ligands); nineteen discrete entities, were added to dendritic cells along with 0.5% diethyl azelate (DEA) and measured levels of 34 signaling molecules (ATP, cytokines, chemokines) produced by the cells after 24 hours. To assess if DEA affected PAMP receptor signaling, the ratios of the levels of these molecules were calculated in treated and untreated cells. If DEA had no effect, these ratios would be equal to 1. […] A similar effect of DEA was observed on the ratios of other signaling molecules.

[3] = Oral glucose tolerance test in ethanol-induced insulin resistance state, human self-study; format: in vivo
[4] = Human clinical trial: OGTT in non-diabetic insulin resistant adult males at Day 1 and Day 21; format: in vivo; conditions: for Percent change: Day-1 vs. Day-21 average blood glucose: (Day-1 − Day-21)/Day-21 ×100%; for OGTT Blood Glucose Level, Day-21 Group Average: after 21 days 1 mg/kg oral once a day, 3 subjects
Procedure: A total of eight subjects were screened, out of which four subjects satisfied all the eligibility criteria. Three healthy male volunteers ranging between 18-50 years of age weighing between 80-120 kg were enrolled in the study. At screening, subjects were non-diabetic insulin resistant (NDIR) having a fasting plasma glucose of greater than 75 mg/dL and less than 126 mg/dL and have a compensatory hyperinsulinemia having a mean of two consecutive fasting insulin samples collected between 10 to 30 minutes apart of great than 12 μIU/mL. Subjects had no clinically significant illness that may affect glucose metabolism, insulin sensitivity or makes them otherwise unsuitable for inclusion in the study. Subjects had no history or ongoing significant abnormalities or diseases, in the areas, such as, endocrine, gastrointestinal, cardiovascular, hematological, renal, upper or lower respiratory, neoplasia. Subjects had no uncontrolled blood pressure of greater than 160/95 mmHg at screening. […] Subjects had not used antidiabetic or antihyperglycemic medications in the last 6 months. Subjects had not used tobacco or nicotine containing products in the last 3 months. Subjects were not mentally or legally incapacitated. Subjects had no history of significant psychiatric disorder (within the last 10 years) and had no significant emotional problems at the time of the study. All subjects were evaluable for safety and all blood collections for pharmacokinetic analysis were collected as scheduled. All studies were performed with institutional review board approval and patient consent. The Board was constituted and operated in accordance with the principles and requirements described in the US Code of Federal Regulations (21 CFR Part 56). The board was ICH compliant. This study was an open label test/retest study measuring the change from baseline of selected biomarkers and computational indices of insulin sensitivity of the adult male volunteers in response to multiple doses of diethyl azelate. The study population was restricted to male participants in order to control for the variability associated with the menstrual cycle on the metabolic parameters of interest (Sheu, Chen et al. 2003). Baseline parameters were assessed followed by retest assessments at three weeks (21-days) post-dose. Diethyl azelate (density of 0.973 g/mL at 25° C. or 973 mg/mL) was administered orally by needless syringes once a day at 1 mg/kg to each subject for 21 days starting at Day 1. The dose was calculated as described below, with standard rounding conventions applied to the nearest 0.01 mL: 1 mg/kg×Participant Weight (kg)×(1 mL/973 mg)=X mL to Dose Additional marketed pharmaceutical products were administered as part of the study procedures or as challenge agents associated with the Oral Glucose Tolerance (OGTT). These include 75 g CHO (carbohydrate) Glucola and small volumes of 0.9% Normal Saline administered intravenously secondary to blood collection. Subjects were evaluated with a baseline OGTT on Day 1 and a final OGTT on Day 21. Safety assessments were performed on each subject during the course of the study including clinical examination, vital signs recording, ECG recording, adverse event (AE) monitoring, and concomitant medication assessment. An Oral Glucose Tolerance Test (OGTT) was performed at baseline on Day 1 and Day 21. The OGTT was performed after a fast greater than eight hours and consisted of eight blood collections. Subjects were administrated a bottle of Glucola drink (containing 50% dextrose I 75 g dextrose in 150 mL solution; available as GlucoCrush™) over a course of five minutes, starting at T=0 (first sip of the Glucola). Two blood-draws occurred ˜30 minutes and just prior (˜0 minute) to administration of the Glucola. Post-meal blood collection occurred at 30, 60, 90, 120, and 180 minutes. Samples for glucose and exploratory PK and biomarker samples were collected at all timepoints associated with the OGTT. […]

[5] = Human clinical trial: safety and tolerability; format: in vivo
Procedure: To evaluate the safety and tolerability of diethyl azelate (immediate release form) when administered orally to insulin resistant adult male volunteers, and to evaluate the change from baseline of selected biomarkers and computational indices of dysmetabolism when diethyl azelate is administered orally to insulin resistant adult male volunteers.
A total of eight subjects were screened, out of which four subjects satisfied all the eligibility criteria. Three healthy male volunteers ranging between 18-50 years of age weighing between 80-120 kg were enrolled in the study. At screening, subjects were non-diabetic insulin resistant (NDIR) having a fasting plasma glucose of greater than 75 mg/dL and less than 126 mg/dL and have a compensatory hyperinsulinemia having a mean of two consecutive fasting insulin samples collected between 10 to 30 minutes apart of great than 12 μIU/mL. Subjects had no clinically significant illness that may affect glucose metabolism, insulin sensitivity or makes them otherwise unsuitable for inclusion in the study. Subjects had no history or ongoing significant abnormalities or diseases, in the areas, such as, endocrine, gastrointestinal, cardiovascular, hematological, renal, upper or lower respiratory, neoplasia. Subjects had no uncontrolled blood pressure of greater than 160/95 mmHg at screening. […] Subjects had not used antidiabetic or antihyperglycemic medications in the last 6 months. […]
Diethyl azelate (density of 0.973 g/mL at 25° C. or 973 mg/mL) was administered orally by needless syringes once a day at 1 mg/kg to each subject for 21 days starting at Day 1. The dose was calculated as described below, with standard rounding conventions applied to the nearest 0.01 mL: 1 mg/kg×Participant Weight (kg)×(1 mL/973 mg)=X mL to Dose
Additional marketed pharmaceutical products were administered as part of the study procedures or as challenge agents associated with the Oral Glucose Tolerance (OGTT). […] Subjects were evaluated with a baseline OGTT on Day 1 and a final OGTT on Day 21. […]

[6] = oral 1 mg/kg once a day, 21 days, three subjects

With `CCOC(=O)CCCCCCCC(=O)OCC` [diethyl azelate] the “cytokine levels (IL-1 a, IL-6, IL-8, TNF-a) versus croton oil alone” value [1] was “downregulated multiple cytokines relevant to T2D including IL-1 a, IL-6, IL-8, and TNF-a”, the “signaling induced by TLR agonists (ATP ratio treated/untreated cells)” value [2] was “decreased signaling induced by most TLR agonists” and the “effect on signaling of PAMP receptors” value ([2]; 34 signaling molecules) was “affected signaling of all PAMP receptors but the effect was greater for the receptors localized on the cell surface than for these inside the cell”. The “percentage decrease of glucose levels vs untreated control state (ethanol-induced insulin resistance)” value (from here on “percentage decrease of glucose levels”) ([3]; fasting (t=0), p=0.02) was 13.6%, the “change in blood glucose in induced insulin resistance state (OGTT)” value ([3]; human self-study, 50 ml ethanol, 1 mg/kg oral 8 hours prior to OGTT (75 g glucose), 0, 1, 2, 4 hours) was “significant decrease of glucose at the baseline (fasting) and highly significant (p<0.0001) at the peak postprandial time point at 2 hours” and the “percentage decrease of glucose levels” value ([3]; t=1 hour, statistically not significant) was 11.4%. For the same molecule, the “percentage decrease of glucose levels” value ([3]; t=2 hours, p=6×10−6) was 36.7%, the “increase in glucose level vs untreated control state (ethanol-induced insulin resistance)” value ([3]; t=4 hours, not statistically significant) was 8.8% and the “Percent change: Day-1 vs. Day-21 average blood glucose” value (from here on “Percent change”) ([4]; 0 min) was 6.5%. For the same molecule, the “OGTT Blood Glucose Level, Day-21 Group Average” value (from here on “OGTT Blood Glucose Level”) ([4]; 0 min) was 94.5 mg/dL, the “Percent change” value ([4]; 30 min) was 14.5% and the “OGTT Blood Glucose Level” value ([4]; 30 min) was 148.0 mg/dL. The “Percent change” value ([4]; 60 min) was 15.7%, the “OGTT Blood Glucose Level” value ([4]; 60 min) was 142.3 mg/dL and the “Percent change” value ([4]; 90 min) was 46.3%. The “OGTT Blood Glucose Level” value ([4]; 90 min) was 105.8 mg/dL, the “Percent change” value ([4]; 120 min) was 15.1% and the “OGTT Blood Glucose Level” value ([4]; 120 min) was 99.2 mg/dL. For the same molecule, the “Percent change” value ([4]; 180 min) was 18.6%, the “OGTT Blood Glucose Level” value ([4]; 180 min) was 71.2 mg/dL and the “insulin metabolism profile after treatment” value ([4]; all three subjects, after 21 days of treatment) was “normal healthy insulin metabolism profiles”. For the same molecule, the “average blood glucose levels after the 3-weeks treatment course” value ([4]; at T=30 mins and 60 mins, pre-treatment 164 to 170 mg/dl) was “below 150 mg/dl”, the “Percent change” value ([4]; −5 min) was 6.2% and the “OGTT Blood Glucose Level” value ([4]; −5 min) was 94.0 mg/dL. The “Percent change” value ([4]; −30 min) was 6.0%, the “OGTT Blood Glucose Level” value ([4]; −30 min) was 94.1 mg/dL and the adverse events observed [5, 6] was “loose stools in one subject”. The “drug-related changes in physical examinations, vital signs, or electrocardiograms (ECGs)” value [5, 6] was “no clinically meaningful drug-related changes” and the tolerability ([5]; oral, three male subjects) was “well tolerated”.
